Results published in patent publication US20070249827A1, “Meropenem Intermediatein in Crystalling Form” (SANDOZ AG, priority 2004, published 2007).

Test: Stability comparison between crystalline form and amorphous form (storage 72 h at 70° C.)
Format: physicochemical
Settings: for content, starting value / sum of all by-products, starting value: before storage

Row | SMILES | content after 72 h at 70° C. [% by weight] | sum of all by-products after 72 h at 70° C. | content, starting value [% by weight] | sum of all by-products, starting value [%]
1 | C[C@@H](O)[C@H]1C(=O)N2C(C(=O)OCc3ccc([N+](=O)[O-])cc3)=C(S[C@H]3C[C@@H](C(=O)N(C)C)N(C(=O)OCc4ccc([N+](=O)[O-])cc4)C3)[C@H](C)[C@H]12 [Compound of formula I in amorphous form, (4R,5S,6S)-(p-nitrobenzyl) 3-[[(3S,5S)-1(-p-nitrobenzyloxycarbonyl)-5-(dimethylaminocarbonyl)-3-pyrrolidinyl]thio]-6-[(1R)-1-hydroxyethyl]-4-methyl-7-oxo-1-azabicyclo[3.2.0]hept-2-ene-2-carboxylate] | 90.8 | sum of all by-products 5.7% | 92.4 | 2.5
2 | C[C@@H](O)[C@H]1C(=O)N2C(C(=O)OCc3ccc([N+](=O)[O-])cc3)=C(S[C@H]3C[C@@H](C(=O)N(C)C)N(C(=O)OCc4ccc([N+](=O)[O-])cc4)C3)[C@H](C)[C@H]12 [Compound of formula I in crystalline form] [(4R,5S,6S)-(p-nitrobenzyl) 3-[[(3S,5S)-1(-p-nitrobenzyloxycarbonyl)-5-(dimethylaminocarbonyl)-3-pyrrolidinyl]thio]-6-[(1R)-1-hydroxyethyl]-4-methyl-7-oxo-1-azabicyclo[3.2.0]hept-2-ene-2-carboxylate] | 99.1 | <0.3% | 99.4 | <0.3
